Patent US20220220152A1, “BIVALENT ANTAGONISTS OF INHIBITORS OF APOPTOSIS PROTEINS” (Hepagene Therapeutics (HK) Limited, priority 2019, published 2022)

Columns and labels:
cIAP1-BIR3 = biological target: T1, cIAP1-BIR3 (Homo sapiens, UniProt Q13490); test: cIAP1-BIR3 fluorescence polarization binding assay; conditions: FP, probe AbuRPFK-5FAM (SM5F) 5 nM, cIAP1-BIR3 15 nM, 60 min at 25° C.
T1 construct: cIAP1-BIR3; purchased Reaction Biology APT-11-370
How it was run: (§1)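 Fluorescence polarization competition using 5-carboxyfluorescein-labelled peptide probe AbuRPFK-5FAM; protein and compound preincubated 15 min, probe added, then 60 min at 25° C.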

XIAP-BIR3 = biological target: T2, XIAP-BIR3 (Homo sapiens, UniProt P98170); test: XIAP-BIR3 fluorescence polarization binding assay; conditions: FP, probe AbuRPFK-5FAM (SM5F) 5 nM, XIAP-BIR3 40 nM, 60 min at 25° C.
T2 construct: XIAP-BIR3; purchased Reaction Biology APT-11-374
How it was run: as §1

cIAP2-BIR3 = biological target: T3, cIAP2-BIR3 (Homo sapiens, UniProt Q13489); test: cIAP2-BIR3 fluorescence polarization binding assay; conditions: FP, probe AbuRPFK-5FAM (SM5F) 5 nM, cIAP2-BIR3 80 nM, 60 min at 25° C.
T3 construct: cIAP2-BIR3; purchased Reaction Biology APT-11-372
How it was run: as §1

T3 sequence (Q13489 238-349 limits assumed): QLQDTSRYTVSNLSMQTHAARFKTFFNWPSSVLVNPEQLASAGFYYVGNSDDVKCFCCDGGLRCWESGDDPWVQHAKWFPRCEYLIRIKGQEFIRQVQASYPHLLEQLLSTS
T2 sequence (P98170 241-356 limits assumed): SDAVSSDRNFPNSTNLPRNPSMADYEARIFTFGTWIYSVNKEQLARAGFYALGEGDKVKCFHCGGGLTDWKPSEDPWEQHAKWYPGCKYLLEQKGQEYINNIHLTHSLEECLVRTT
T1 sequence (Q13490 253-363 limits assumed): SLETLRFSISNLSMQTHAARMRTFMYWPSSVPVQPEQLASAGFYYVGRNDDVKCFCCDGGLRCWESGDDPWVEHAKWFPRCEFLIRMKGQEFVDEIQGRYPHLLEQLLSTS

IC50 (cIAP1-BIR3) [nM] | IC50 (XIAP-BIR3) [nM] | IC50 (cIAP2-BIR3) [nM] | Molecule
1 to 10 | 10 to 100 | 10 to 100 | CN[C@@H](C)C(=O)N[C@H](C(=O)N1CCC[C@H]1C(=O)N[C@@H]1CCCc2c(Nc3cccc4c3CCC[C@H]4NC(=O)[C@@H]3CCCN3C(=O)[C@@H](NC(=O)[C@H](C)NC)C(C)C)cccc21)C(C)C [Compound VI-B, (S)-1-(methyl-L-alanyl-L-valyl)-N—((R)-5-(((R)-5-((S)-1-(methyl-L-alanyl-L-valyl)pyrolidine-2-carboxamido)-5,6,7,8-tetrahydronaphthalen-1-yl)amino)-1,2,3,4-tetrahydronaphthalen-1-yl)pyrrolidine-2-carboxamide]
1 to 10 | 10 to 100 | 10 to 100 | CN[C@@H](C)C(=O)N[C@H](C(=O)N1CCC[C@H]1C(=O)N[C@@H]1CCCc2c(-c3ccc(-c4cccc5c4CCC[C@H]5NC(=O)[C@@H]4CCCN4C(=O)[C@@H](NC(=O)[C@H](C)NC)C(C)C)cc3)cccc21)C(C)C [III-N, (2S)-1-[(2S)-3-methyl-2-[(2S)-2-(methylamino)propanamido]butanoyl]-N-[(1R)-5-[4-[(5R)-5-[(2S)-1-[(2S)-3-methyl-2-[(2S)-2-(methylamino)propanamido]butanoyl]pyrolidine-2-amido]-5,6,7,8-tetrahydronaphthalen-1-yl]phenyl]-1,2,3,4-tetrahydronaphthalen-1-yl]pyrrolidine-2-carboxamide]
1 to 10 | 10 to 100 | 10 to 100 | CN[C@@H](C)C(=O)N[C@H](C(=O)N1CCC[C@H]1C(=O)N[C@@H]1CCCc2c(Oc3cccc4c3CCC[C@H]4NC(=O)[C@@H]3CCCN3C(=O)[C@@H](NC(=O)[C@H](C)NC)C(C)C)cccc21)C(C)C [Compound X-B, (S)-1-(Methyl-L-alanyl-L-valyl)-N—((R)-5-(((R)-5-((S)-1-(methyl-L-alanyl-L-valyl)pyrrolidine-2-carboxamido)-5,6,7,8-tetrahydronaphthalen-1-yl)oxy)-1,2,3,4-tetrahydronaphthalen-1-yl)pyrrolidine-2-carboxamide]
1 to 10 | 10 to 100 | 10 to 100 | CC[C@H](NC(=O)[C@H](C)NC)C(=O)N1CCC[C@H]1C(=O)N[C@@H]1CCCc2c(-c3cccc(-c4cccc5c4CCC[C@H]5NC(=O)[C@@H]4CCCN4C(=O)[C@H](CC)NC(=O)[C@H](C)NC)c3)cccc21 [III-D, (2S)-1-[(2S)-2-[(2S)-2-(methylamino)propanamido]butanoyl]-N-[(1R)-5-[3-[(5R)-5-[(2S)-1-[(2S)-2-[(2S)-2-(methylamino)propanamido]butanoyl]pyrrolidine-2-amido]-5,6,7,8-tetrahydronaphthalen-1-yl]phenyl]-1,2,3,4-tetrahydronaphthalen-1-yl]pyrrolidine-2-carboxamide]
1 to 10 | 10 to 100 | 10 to 100 | CC[C@H](NC(=O)[C@H](C)NC)C(=O)N1CCC[C@H]1C(=O)N[C@@H]1CCc2c(-c3cccc4c3CC[C@H]4NC(=O)[C@@H]3CCCN3C(=O)[C@H](CC)NC(=O)[C@H](C)NC)cccc21 [Compound V-O, (2S,2'S)—N,N′-((1R,1′R)-2,2′,3,3′-tetrahydro-1H,1′H-[4,4′-biindene]-1,1′-diyl)bis(1-((S)-2-((S)-2-(methylamino)propanamido)butanoyl)pyrrolidine-2-carboxamide)]
1 to 10 | 10 to 100 | 1 to 10 | CN[C@@H](C)C(=O)N[C@H](C(=O)N1CCC[C@H]1C(=O)N[C@@H]1CCCc2c(NC(=O)c3cccc4c3CCC[C@H]4NC(=O)[C@@H]3CCCN3C(=O)[C@@H](NC(=O)[C@H](C)NC)C(C)C)cccc21)C(C)C [VII-A, (2S)-1-[(2S)-3-methyl-2-[(2S)-2-(methylamino)propanamido]butanoyl]-N-[(1R)-5-[[(5R)-5-[(2S)-1-[(2S)-3-methyl-2-[(2S)-2-(methylamino)propanamido]butanoyl]pyrrolidine-2-amido]-5,6,7,8-tetrahydronaphthalen-1-yl]carbamoyl]-1,2,3,4-tetrahydronaphthalen-1-yl]pyrrolidine-2-carboxamide]
1 to 10 | 10 to 100 | 10 to 100 | CN[C@@H](C)C(=O)N[C@H](C(=O)N1CCC[C@H]1C(=O)N[C@@H]1CCCc2c(-c3cccc(-c4cccc5c4CCC[C@H]5NC(=O)[C@@H]4CCCN4C(=O)[C@@H](NC(=O)[C@H](C)NC)C4CCCCC4)c3)cccc21)C1CCCCC1 [III-A, (2S)-1-[(2S)-2-Cyclohexyl-2-[(2S)-2-(methylamino)propanamido]acetyl]-N-[(1R)-5-(3-[(5R)-5-[(2S)-1-[(2S)-2-cyclohexyl-2-[(2S)-2-(methylamino)propanamido]acetyl]pyrolidine-2-amido]-5,6,7,8-tetrahydronaphthalen-1-yl]phenyl)-1,2,3,4-tetrahydronaphthalen-1-yl]pyrrolidine-2-carboxamide]

Further lines, the molecule ahead of its results:

Molecule | IC50 (cIAP1-BIR3) [nM] | IC50 (XIAP-BIR3) [nM] | IC50 (cIAP2-BIR3) [nM]
CN[C@@H](C)C(=O)N[C@H](C(=O)N1CCC[C@H]1C(=O)N[C@@H]1CCCc2c(-c3ccc4cc(-c5cccc6c5CCC[C@H]6NC(=O)[C@@H]5CCCN5C(=O)[C@@H](NC(=O)[C@H](C)NC)C5CCCCC5)ccc4c3)cccc21)C1CCCCC1 [Compound III-B, (2S)-1-[(2S)-2-Cyclohexyl-2-[(2S)-2-(methylamino)propanamido]acetyl]-N-[(1R)-5-{6-[(5R)-5-[(2S)-1-[(2S)-2-cyclohexyl-2-[(2S)-2-(methylamino)propanamido]acetyl]pyrrolidine-2-amido]-5,6,7,8-tetrahydronaphthalen-1-yl]naphthalen-2-yl}-1,2,3,4-tetrahydmnaphthalen-1-yl]pyrrolidine-2-carboxamide] | 1 to 10 | 10 to 100 | 10 to 100
CN[C@@H](C)C(=O)N[C@H](C(=O)N1CCC[C@@H]1C(=O)N[C@@H]1CCCc2ccc(-c3ccc(-c4ccc5c(c4)[C@H](NC(=O)[C@@H]4CCCN4C(=O)[C@@H](NC(=O)[C@H](C)NC)C4CCCCC4)CCC5)cc3)cc21)C1CCCCC1 [Compound III-M, (2S)-1-[(2S)-2-cyclohexyl-2-[(2S)-2-(methylamino)propanamido]acetyl]-N-[(1R)-7-[4-[(8R)-8-[(2R)-1-[(2S)-2-cyclohexyl-2-[(2S)-2-(methylamino)propanamido]acetyl]pyrrolidine-2-amido]-5,6,7,8-tetrahydronaphthalen-2-yl]phenyl]-1,2,3,4-tetrahydronaphthalen-1-yl]pyrrolidine-2-carboxamide] | 10 to 100 | > 1000 | 100 to 1000
CN[C@@H](C)C(=O)N[C@H](C(=O)N1C[C@@H](O)C[C@H]1C(=O)N[C@@H]1CCCc2c(-c3cccc4c3CCC[C@H]4NC(=O)[C@@H]3C[C@H](O)CN3C(=O)[C@@H](NC(=O)[C@H](C)NC)C3CCCCC3)cccc21)C1CCCCC1 [Compound V-L, (2S,4S)-1-[(2S)-2-cyclohexyl-2-[(2S)-2-(methylamino)propanamido]acetyl]-N-[(5R,5′R)-5′-[(2S,4S)-1-[(2S)-2-cyclohexyl-2-[(2S)-2-(methylamino)propanamido]acetyl]-4-hydroxypyrrolidine-2-amido]-5H,5′H,6H,6′H,7H,7′H,8H,8′H-[1,1′-binaphthalen]-5-yl]-4-hydroxypyrrolidine-2-carboxamide] | 1 to 10 | 10 to 100 | 10 to 100
(2S,4S)-1-((S)-2-cyclohexyl-2-((S)-2-(methylamino)propanamido)acetyl)-N—((R)-5-(2-(2-(((R)-5-((2S,4S)-1-((S)-2-cyclohexyl-2-((S)-2-(methylamino)propanamido)acetyl)-4-hydroxypyrrolidine-2-carboxamido)-5,6,7,8-tetrahydronaphthalen-1-yl)oxy)ethoxy) ethoxy)-1,2,3,4-tetrahydmnaphthalen-1-yl)-4-hydroxypyrrolidine-2-carboxamide Formic Acid [Compound II-C] | 1 to 10 | 10 to 100 | 10 to 100
CN[C@@H](C)C(=O)N[C@H](C(=O)N1CCC[C@H]1C(=O)N[C@@H]1CCCc2c(OCCN3CCN(CCOc4cccc5c4CCC[C@H]5NC(=O)[C@@H]4CCCN4C(=O)[C@@H](NC(=O)[C@H](C)NC)C4CCCCC4)CC3)cccc21)C1CCCCC1 [Compound IX, (2S)-1-[(2S)-2-cyclohexyl-2-[(2S)-2-(methylamino)propanamido]acetyl]-N-[(1R)-5-{2-[4-(2-{[(5R)-5-[(2S)-1-[(2S)-2-cyclohexyl-2-[(2S)-2-(methylamino)propanamido]acetyl]pyrolidine-2-amido]-5,6,7,8-tetrahydronaphthalen-1-yl]oxy}ethyl)piperazin-1-yl]ethoxy}-1,2,3,4-tetrahydmnaphthalen-1-yl]pyrrolidine-2-carboxamide] | 1 to 10 | 100 to 1000 | 10 to 100
CN[C@@H](C)C(=O)N[C@H](C(=O)N1CCC[C@H]1C(=O)N[C@@H]1CCc2c(-c3cccc4c3CC[C@H]4NC(=O)[C@@H]3CCCN3C(=O)[C@@H](NC(=O)[C@H](C)NC)C3CCCCC3)cccc21)C1CCCCC1 [Compound V, (2S)-1-[(2S)-2-cyclohexyl-2-[(2S)-2-(methylamino)propanamido]acetyl]-N-[(1R,1′R)-1′-[(2S)-1-[(2S)-2-cyclohexyl-2-[(2S)-2-(methylamino)propanamido]acetyl]pyrrolidine-2-amido]-1H,1′H,2H,2′H,3H,3′H-[4,4′-biinden]-1-yl]pyrrolidine-2-carboxamide] | 1 to 10 | 10 to 100 | 10 to 100
